{"source": "patent US20230090223A1", "about": "“NANOPARTICLES FOR USE IN THE TREATMENT AND DIAGNOSIS OF CNS DISORDERS” (priority 2020, published 2023)", "assay": "Relaxivity measurement, 1.0 T MRI scanner", "format": "physicochemical", "details": "room temperature", "method": "A relaxivity study was performed by evaluating the longitudinal relaxation time T1 of HP—Au—Gd nanoparticles at different Gd concentrations at room temperature by using a 1.0 T-MRI scanner (ICON, Bruker Biospin, Ettlingen, Germany). The commercially available gadolinium contrast agent (Gadopentetic acid or Gd-DTPA) was used as the positive control. The contrast agents were initially placed into syringes and set in the center of the volume coil. The sample temperature was maintained at room temperature. By using the MRI scanner, horizontal single-slice T1-weighted MR images were acquired (spin echo, TR/TE=400/10 ms, slice thickness=2.0 mm, matrix=256×256, field of view (FOV)=38.4×38.4 mm, number of averages (NA)=10, number of slices=1). Horizontal single-slice inversion-recovery MRI was done to calculate the T1 and r1 by using rapid acquisition with relaxation enhancement (RARE) acquisition (TR=20,000 ms, TE=17 ms, inversion time=45, 100, 200, 400, 800, 1600, 3200, 6400, 8000, 10000, 12000 ms, matrix size=64×64, FOV=38.4×38.4 mm, slice thickness=2.0 mm, RARE factor=4, and NA=1). Then, the r1 relaxivities were calculated by using the following equation: r1=(1/T1-1/T1(0))/[Gd] where [Gd] is the concentration of Gd, and 1/T1(0) and 1/T1 are the longitudinal relaxation rate without and with paramagnetic species, respectively.", "data": [{"smiles": "CNC[C@H](O)[C@@H](O)[C@H](O)[C@H](O)CO.CNC[C@H](O)[C@@H](O)[C@H](O)[C@H](O)CO.O=C([O-])CN(CCN(CC(=O)[O-])CC(=O)O)CCN(CC(=O)[O-])CC(=O)O.[Gd+3]", "note": "[Gd-DTPA, Gadopentetic acid]", "values": [{"measurement": "r1 relaxivity", "result": 3.26, "unit": "mM⁻¹ s⁻¹"}]}]}
